Laboratory results as given in patent US6548540B2, “Method of treating cancer using dithiocarbamate derivatives” (Charlotte-Mecklenburg Hospital Authority, priority 1998, dated 2003).

Tests used:
Format in all cases: cell-based, human
[1] = test system: bcl-2; test: Immunoblot for bcl-2; conditions: cell lines studied; data not shown
Procedure: Cells were lysed and proteins were isolated and quantitated by immunoassay as previously detailed using 2 μg/ml of primary rabbit polyclonal antibodies against human bcl-2, p53, p21^WAF1/CiP1, cyclin A and cyclin B1, and peroxidase-labeled donkey polyclonal anti-rabbit IgG. Cells were placed on ice, washed twice with cold DPBS, scraped into 0.5 ml boiling buffer (10% [vol/vol] glycerol and 2% [wt/vol] sodium dodecyl sulfate [SDS] in 83 mM Tris, pH 6.8) and sheared by four passages through a pipette. Aliquots were removed for protein determination, using the BCA protein assay (Pierce). After 10% β-mercaptoethanol and 0.05% bromophenol blue were added, lysates were boiled for 5 min and stored at −80° C. until immunoblotting was performed. Proteins in defrosted samples were separated by SDS-polyacrylamide gel electrophoresis on 12% polyacrylamide gels (15 μg protein/lane) and electrotransferred to 0.45 μm Hybond ECL nitrocellulose membranes (Amersham Life Sciences) using the wet transblot method in transfer buffer (0.025 M Tris, 0.192 M glycine, 2.6 mM SDS, and 20%[vol/vol] methanol; pH 8.8) at 100 volts for 1 hour. […] Immunoblots were rinsed again as above and detected via an enhanced chemiluminescence method (ECL Western blotting detection system, Amersham Life Science, Buckinghamshire, England). […]

[2] = test system: H520 lung carcinoma cells; test: Trypan blue cytotoxicity, H520; conditions: 0.625 μM disulfiram; 36 hours
Procedure: To assess for cytotoxicity, cells were plated at a density of 50,000 per well on 24 well plates and grown for 24 hours. Disulfiram was then added. After an additional 36 hours, medium was removed and replaced with DPBS containing 0.1% trypan blue. Cell death was assessed by counting the average number of trypan blue positive cells per 10×field in 5 random fields for 4 separate wells.

[3] = test system: M1619 melanoma cells; test: DNA cell cycle by flow cytometry; conditions: 24 hours
Procedure: To study the effect of disulfiram on the DNA cell cycle, cells were grown to confluence in 25 cm^2 plastic flasks and treated for with 10% FBS plus DMSO vehicle, FBS and DMSO vehicle plus 250 μg/ml ceruloplasmin as a source of copper, FBS plus 5 μM disulfiram or FBS plus 5 μM disulfiram and 250 μg/ml ceruloplasmin. After 24 hours cells were trypsinized, washed twice in cold DPBS with 1 mM EDTA and 1% BSA, fixed 30 minute in ice-cold 70% ethanol, and stained by incubation for 30 minutes at 37° C. in a 10 μg/ml solution of propidium iodide in DPBS and 1 mg/ml RNase A. DNA cell cycle measurements were made using a FACStar^PLUS Flow Cytometer (Becton-Dickenson, San Jose, Calif.).
The antiproliferative activity of dithiocarbamate disulfides depends on complexation with copper. PDTC induces apoptosis in normal thymocytes that is mediated by complexation of copper from fetal bovine serum in the medium and subsequent facilitation of copper transport into cells. […] Unsynchronized M1619 melanoma cells were grown in the presence of DMSO vehicle (A), 5 μM disulfiram (B), or 5 μM disulfiram plus 250 μg/ml ceruloplasmin (Cerulo) as a source of copper (C). Twenty-four hours later, cells were harvested and flow cytometric analysis was performed. The proportion of nuclei in each phase of the cell cycle (brackets) was determined with MODFIT DNA analysis software. Disulfiram increases the portion of cells in S phase. The combination of disulfiram and ceruloplasmin further increases the number of cells in S phase, prevents progression into the G2-M cell cycle and induces apoptosis.

[4] = 5 μM disulfiram plus 250 μg/ml ceruloplasmin

Question: For `CCN(CC)C(=S)SSC(=S)N(CC)CC` [Disulfiram, tetraethylthiuram disulfide], which “expression of bcl-2” value [1] is on record?
Answer: Its value is “no consistent effect”.

Question: What about the “trypan blue positive cells” value [2] of the same compound?
Answer: The value was 94±18 trypan blue positive cells per well.

Question: And the apoptotic cells [3, 4]?
Answer: Its apoptotic cells is 6%.

Question: What about the “cells in G2-M” value [3, 4] of the same compound?
Answer: The value was “none”.

Question: And the “cells in S phase” value [3, 4]?
Answer: Its value is “Over two-thirds”.

Question: And the cell cycle distribution ([3]; 5 μM disulfiram)?
Answer: Its cell cycle distribution is “increases the portion in S phase”.
